In paper PMC5352362, “Molecular and functional evaluation of a novel HIF inhibitor, benzopyranyl 1,2,3-triazole compound” (Oncotarget, 2016):
“Also recorded” adds a separate entry of the source.

Key:
[1] = tested on: Lewis lung carcinoma (LLC) cells; experiment: Lewis lung carcinoma allograft in C57BL/6J mice with immunohistochemistry; format: in vivo, mouse
Experimental: HIF-1α is synthesized by growth factor signaling pathways, such as those of EGFR [30] [31]. Inhibition of HIF-1α in its pathways of synthesis, as well as in its pathway of degradation, would seem to make for a more efficient anti-cancer/anti-angiogenesis treatment. To confirm this, we performed a tumor allogaft experiment using Lewis lung carcinoma (LLC) cells. 1 × 10^6 LLC cells were inoculated into the mouse flank subcutaneously (s.c.), and treatment with Compound 12 (5 mg/kg) and/or gefitinib (an EGFR inhibitor, 50 mg/kg), via intraperitoneal (i.p.) administration, was performed every other day for 20 days. At Day 20, mice were sacrificed and tumor tissue was fixed in formaldehyde for 1 h for further histological examination. […] To confirm the effect of Compound 12 on angiogenesis, we analyzed angiogenesis using the Matrigel plug assay. […] To confirm the effects of Compound 12 on anti-angiogenesis, we sectioned the tumor tissues to determine microvessel density (MSD) via immunohistochemistry (using CD31 antibody).
Figure 6 Compound 12 suppressed allogaft tumor growth and enhanced the effects of a chemotherapeutic agent (A, B) Lewis lung carcinoma cells were inoculated into flanks of C57BL/6J mice (Day 0). From two days after inoculation, mice were treated intraperitoneally with Compound 12 (5 mg/kg body weight) and gefitinib (50 mg/kg body weight), three times a week, for 18 days and then sacrificed. Tumor size (A) and tumor weight (B) were measured three times a week and on the final day, respectively. Tumor masses were photographed and shown in box below the graph. **P < 0.05 versus control group. (C) Matrigel was treated with DMSO, Compound 12 (100 nM), and gefitinib (5 μM) and inoculated in the flank of C57BL/6J mice. After 10 days matrigel plug was removed and photographed. The content of hemoglobin was quantified and graphed. (D) Tumor tissue sections (10 μm) indicated were stained with H&E and immunostained with anti-CD31 antibody to detect microvessel density; CD31+ cell percentages were then calculated and graphed. Scale bar, 100 μm. **P < 0.05 versus control group. (E) Images and quantitative comparisons (graph) for hypoxic regions, immunostained CA9 protein, and microvessels (CD31+ cells) in tumor center regions are shown. Scale bar, 100 μm. **P < 0.05 versus control group. (F) Images and quantitative comparisons (graph) for Ki67+ proliferating cells in tumor center regions are shown. Scale bar, 100 μm. **P < 0.05 versus control group.
We determined levels of hypoxia in tissues via: 1) antibodies against the hypoxic cell marker pimonidazole (PIMO), and 2) checking expression levels of carbonic anhydrase (CA9), a downstream target of HIF-1.
LLC cells (1 × 10^6) were injected subcutaneously into the flanks of 6-week-old C57BL/6J mice (Day 0)(SLC, Japan). Tumor size and body weight were measured 3 time a week. Tumor tissues were removed at day 20 after completion of injection of vehicle or drugs and fixed with 4% paraformaldehyde (PFA). After tissue processing for frozen sample preparation protocol, samples were embedded in OCT compound and frozen quickly by liquid nitrogen. Frozen blocks were cut into 10 μm sections and stained with hematoxylin and eosin (H&E) for light microscopy. Additional tissue sections for immunohistochemistry were blocked with 5% goat serum in PBST (0.03% Triton X-100 in PBS) and then incubated for 3 h at RT with following primary antibodies, anti-CD31 and anti-Ki67. To detect the hypoxic area in the tumors, Hypoxyprobe-1™ (60 mg/kg, Natural Pharmacia International) was iv injected 90 min before tissue fixation. Tumors were harvested, sectioned and stained with FITC-conjugated anti-Hypoxyprobe antibody.

[2] = tested on: HIF-1 (5xHRE-Luc reporter in HEK-293 cells); experiment: Dual-luciferase HRE reporter assay under hypoxia; format: cell-based; settings: Homo sapiens, HEK293, hypoxia 1% O2, 24 h, compared to hypoxic control, read-out: inhibition of hypoxia-induced HRE Luc reporter activity (HIF-1α transactivation)
Experimental: To identify active inhibitors of HIF-1α, a cell-based reporter assay was performed. HEK-293 cells were co-transfected with pGL3-5xHRE-Luc plasmid harboring five copies of hypoxia responsive element (HRE) from the VEGF gene promoter, and with pRL-SV40 encoding Renilla genes. The HRE-containing promoter of the HIF-1 target genes is regulated by HIF-1 activation. Transfected cells were treated with chemical compounds at 1 μM and were exposed to hypoxic conditions (1% O2) for 24 h, and then were assayed. Echinomycin (E), a well-known HIF-1α inhibitor, was used as a positive control. Compared to normoxic control conditions, hypoxia increased this luciferase reporter's activity by approximately three-fold.
Figure 1 Screening of 144 compounds from an in-house chemical library for inhibition of HIF-1 activity HEK-293 cells were co-transfected with luciferase reporter plasmids (pGL3-HRE-luciferase) and Renilla vector (pRL-SV40). Cells were exposed to hypoxic conditions in the presence or absence of chemicals for 24 h, and were then lysed for assays of luciferase activity. […]
HEK-293 cells were seeded onto 96-well plates at a density of 5 × 10^3 cells/well, and allowed to attach for 24 h. […] Firefly luminescence was measured using a microplate reader (Infinite M200 Pro, TECAN, Männedorf, Switzerland). […] Renilla luminescence was measured using a microplate reader. […]

## COc1ccc(-c2cn(CC3(C)C=Cc4cc([N+](=O)[O-])ccc4O3)nn2)cc1 (stereo not drawn) [Compound 12, 4-(4-methoxyphenyl)-1-((2-methyl-6-nitro-2H-chromen-2-yl)methyl)-1H-1,2,3-triazole]
[1]; LLC allograft tumor sections
  PIMO/CA9 levels in tumors, Compound 12 combined with gefitinib: decreased synergistically
  levels of PIMO and CA9 in tumors, single agent: significantly diminished
  microvessel density (MSD), CD31, Compound 12 combined with gefitinib: synergistically decreased MSD
  microvessel density (MSD), CD31, single agent: significantly decreased MSD
[1]; LLC allograft tumor sections, single agent
  cells expressing Ki-67 protein in tumors: significantly decreased
[1]; LLC allograft, C57BL/6J mice, i.p., Compound 12 5 mg/kg, gefitinib 50 mg/kg
  tumor growth, single agent: inhibited tumor growth significantly
[1]; LLC allograft, i.p., 5 mg/kg, final day
  tumor weight: significantly decreased
[1]; LLC allograft, i.p., Compound 12 5 mg/kg plus gefitinib 50 mg/kg
  tumor growth, Compound 12 combined with gefitinib: significantly inhibited tumor growth and angiogenesis; also recorded: suppressed tumor growth more effectively than did either drug alone
[2]
  inhibition at 1 µM: 50%
